In publication PMC12724174, “Biodegradation of the endocrine-disrupting compound bisphenol F by Sphingobium yanoikuyae DN12” (Applied and Environmental Microbiology, 2025) one finds Km data, which are given here for two molecules.

A word on the Km: it is the concentration of substrate that gives half-maximal velocity.

The subject of one assay is T1, BpfAB (BpfA1B1).
T1 construct: gene bpfA1; bpfA1B1 co-expressed from pET-29a in E. coli BL21(DE3), N-terminal His6 on BpfA (MHHHHHHPLSVAE by primer), Ni-NTA; total 663 aa; BpfB mostly apo (little heme); C-terminus of BpfB VEPKP by primer; with Cytochrome c BpfB
Put plainly: HPLC of residual substrate; Michaelis-Menten nonlinear fit. Type of assay: biochemical, Sphingobium yanoikuyae. The note with it: apparent; optimal pH 8.0 and 55°C; 0.1 mM FAD, 0.2 mM phenazine methosulfate in standard assay; BpfB mostly apo.

The next assay has as its system T2, BpfC (BpfC1).
T2 construct: full length, 402 aa (1,209 bp), C-terminal His6 (pET-29a), E. coli BL21(DE3), Ni-NTA; N-terminus MSGNDR and C-terminus FAESVQ-LEHHHHHH by primers
The assay is described as above. Type of assay: biochemical, Sphingobium yanoikuyae. The note with it: apparent; optimal pH 8.5 and 40°C; 0.02 mM FAD, 0.4 mM nicotinamide adenine dinucleotide phosphate in standard assay; aerobic.

On to `Oc1ccc(Cc2ccc(O)cc2)cc1` [BPF, Bisphenol F], for which the Km with BpfAB (BpfA1B1) worked out at 19.3 ± 6.66 µM. Turning to `O=C(c1ccc(O)cc1)c1ccc(O)cc1` [DHBP, 4,4'-dihydroxybenzophenone], the Km in the assay on BpfC (BpfC1) stood at 21.3 ± 2.88 µM.
